# Literature values, collected in patent publication US6878388B1, “Vanadium compounds for treating proliferative cell disorders” (Parker Hughes Institute, priority 2000, dated 2005).
# Key:
# pharyngonasal cancer = settings: single assay, Sakurai et al. 1995; cited from earlier work
# tumor cell growth = settings: Kopf-Maier et al. 1983; cited from earlier work
Molecule,activity against pharyngonasal cancer (pharyngonasal cancer),effect on tumor cell growth (tumor cell growth)
"O.O.O=S(=O)([O-])[O-].[O]=[V+2].c1cnc2c(c1)ccc1cccnc12 [[VO(Phen)(H2O)2](SO4), (diaqua)(1,10-phenanthroline)oxovanadium (IV) sulfate]",active,–
Vanadocene dichloride [VDC],–,arrest tumor cell growth
